Where two headings read alike, the source gives them in different places.
How the values were obtained:
L. monocytogenes = format: cell-based, Listeria monocytogenes; conditions: 21° C.
various yeast species = assay: Effect of levulinic acids plus SDS at 21° C. on various yeast species; format: cell-based; conditions: for Yeast counts at min: 1: 1 min; for Yeast counts at min: 2: 2 min; for Yeast counts at min: 5: 5 min; for Yeast counts at min: 10: 10 min; for Yeast counts at min: 20: 20 min; for Yeast counts at min: 30: 30 min; for Yeast counts at min: 60: 60 min
S. typhimurium DT 104 = format: cell-based, Salmonella typhimurium DT104; conditions: water, 21° C.
[1] = test system: spores of Bacillus anthracis Sterne; format: cell-based, Bacillus anthracis Sterne (34F2)
S. enteritidis = assay: Reduction of S. enteritidis in water treated with organic acids and SDS; format: cell-based, Salmonella enteritidis; conditions: water; for S. enteritidis counts: 21° C.; for Salmonella reduction: contact for 30 minutes
[2] = 0 min, listed as 0.5% levulinic acid
[3] = 0 min, listed as 1.0% levulinic acid
[4] = 0 min, listed as 2.0% levulinic acid
[5] = 2 min, listed as 0.5% levulinic acid
[6] = 2 min, listed as 1.0% levulinic acid
[7] = 2 min, listed as 2.0% levulinic acid
[8] = 5 min, listed as 0.5% levulinic acid
[9] = 5 min, listed as 1.0% levulinic acid
[10] = 5 min, listed as 2.0% levulinic acid
[11] = 10 min, listed as 0.5% levulinic acid
[12] = 10 min, listed as 1.0% levulinic acid
[13] = 10 min, listed as 2.0% levulinic acid
[14] = 20 min, listed as 0.5% levulinic acid
[15] = 20 min, listed as 1.0% levulinic acid
[16] = 20 min, listed as 2.0% levulinic acid
[17] = 30 min, listed as 0.5% levulinic acid
[18] = 30 min, listed as 1.0% levulinic acid
[19] = 30 min, listed as 2.0% levulinic acid

## CC(=O)CCC(=O)O [levulinic acid]
L. monocytogenes; 0 min
  L. monocytogenes counts: 6.9 ± 0.1 log CFU/ml
L. monocytogenes; [2]
  L. monocytogenes counts: 6.7 ± 0.2 log CFU/ml
L. monocytogenes; [3]
  L. monocytogenes counts: 6.8 ± 0.3 log CFU/ml
L. monocytogenes; [4]
  L. monocytogenes counts: 6.8 ± 0.3 log CFU/ml
L. monocytogenes; 2 min
  L. monocytogenes counts: 6.9 ± 0.2 log CFU/ml
L. monocytogenes; [5]
  L. monocytogenes counts: 6.7 ± 0.1 log CFU/ml
L. monocytogenes; [6]
  L. monocytogenes counts: 6.7 ± 0.2 log CFU/ml
L. monocytogenes; [7]
  L. monocytogenes counts: 6.8 ± 0.2 log CFU/ml
L. monocytogenes; 5 min
  L. monocytogenes counts: 6.9 ± 0.3 log CFU/ml
L. monocytogenes; [8]
  L. monocytogenes counts: 6.8 ± 0.3 log CFU/ml
L. monocytogenes; [9]
  L. monocytogenes counts: 6.6 ± 0.3 log CFU/ml
L. monocytogenes; [10]
  L. monocytogenes counts: 6.9 ± 0.2 log CFU/ml
L. monocytogenes; 10 min
  L. monocytogenes counts: 6.9 ± 0.1 log CFU/ml
L. monocytogenes; [11]
  L. monocytogenes counts: 6.9 ± 0.2 log CFU/ml
L. monocytogenes; [12]
  L. monocytogenes counts: 6.6 ± 0.3 log CFU/ml
L. monocytogenes; [13]
  L. monocytogenes counts: 6.7 ± 0.2 log CFU/ml
L. monocytogenes; 20 min
  L. monocytogenes counts: 6.9 ± 0.3 log CFU/ml
L. monocytogenes; [14]
  L. monocytogenes counts: 6.7 ± 0.2 log CFU/ml
L. monocytogenes; [15]
  L. monocytogenes counts: 6.6 ± 0.0 log CFU/ml
L. monocytogenes; [16]
  L. monocytogenes counts: 6.9 ± 0.2 log CFU/ml
L. monocytogenes; 30 min
  L. monocytogenes counts: 6.8 ± 0.3 log CFU/ml
L. monocytogenes; [17]
  L. monocytogenes counts: 6.8 ± 0.2 log CFU/ml
L. monocytogenes; [18]
  L. monocytogenes counts: 6.6 ± 0.3 log CFU/ml
L. monocytogenes; [19]
  L. monocytogenes counts: 6.8 ± 0.2 log CFU/ml
Various yeast species; Debaryomyces hansenii
  Yeast counts at min: 1: 4.8 log CFU/ml
  Yeast counts at min: 2: 4.9 log CFU/ml
  Yeast counts at min: 5: 4.6 log CFU/ml
  Yeast counts at min: 10: 4.4 log CFU/ml
  Yeast counts at min: 20: 4.7 log CFU/ml
  Yeast counts at min: 30: 3.0 log CFU/ml
  Yeast counts at min: 60: 1.3 log CFU/ml
Various yeast species; Geotrichum candidum
  Yeast counts at min: 1: 4.4 log CFU/ml
  Yeast counts at min: 2: 4.4 log CFU/ml
  Yeast counts at min: 5: 4.3 log CFU/ml
  Yeast counts at min: 10: 4.1 log CFU/ml
  Yeast counts at min: 20: 3.8 log CFU/ml
  Yeast counts at min: 30: 3.4 log CFU/ml
  Yeast counts at min: 60: 2.0 log CFU/ml
Various yeast species; Saccharomyces cerevisiae
  Yeast counts at min: 1: 5.3 log CFU/ml
  Yeast counts at min: 2: 5.5 log CFU/ml
  Yeast counts at min: 5: 5.4 log CFU/ml
  Yeast counts at min: 10: 5.3 log CFU/ml
  Yeast counts at min: 20: 5.3 log CFU/ml
  Yeast counts at min: 30: 5.5 log CFU/ml
  Yeast counts at min: 60: 5.0 log CFU/ml
S. typhimurium DT 104; 0 min
  S. typhimurium DT 104 counts: 6.8 log CFU/ml
S. typhimurium DT 104; 1 min
  S. typhimurium DT 104 counts: 6.7 log CFU/ml
S. typhimurium DT 104; 2 min
  S. typhimurium DT 104 counts: 6.6 log CFU/ml
S. typhimurium DT 104; 5 min
  S. typhimurium DT 104 counts: 6.5 log CFU/ml
S. typhimurium DT 104; 10 min
  S. typhimurium DT 104 counts: 6.7 log CFU/ml
S. typhimurium DT 104; 20 min
  S. typhimurium DT 104 counts: 6.6 log CFU/ml
S. typhimurium DT 104; 30 min
  S. typhimurium DT 104 counts: 6.4 log CFU/ml
S. typhimurium DT 104; 60 min
  S. typhimurium DT 104 counts: 5.9 log CFU/ml
[1]; Experiment A3, 10 min
  CFU % recovery (as compared to control flask F): 81%
[1]; Experiment A3, 45 min
  CFU % recovery (as compared to control flask F): 55%
[1]; Experiment A3, 90 min
  CFU % recovery (as compared to control flask F): 64%
[1]; Experiment A4 absent heat, RT, 0 min
  CFU % recovery (as compared to control flask F): 89%
[1]; Experiment A4 absent heat, RT, 1 h
  CFU % recovery (as compared to control flask F): 54%
[1]; Experiment A4 absent heat, RT, 2 h
  CFU % recovery (as compared to control flask F): 27%
[1]; Experiment A4 absent heat, RT, 3 h
  CFU % recovery (as compared to control flask F): 30%
[1]; Experiment A4 absent heat, RT, 4 h
  CFU % recovery (as compared to control flask F): 15%
[1]; Experiment A4 with heat, 65° C., 0 min
  CFU % recovery (as compared to control flask F): 70%
[1]; Experiment A4 with heat, 65° C., 1 h
  CFU % recovery (as compared to control flask F): 78%
[1]; Experiment A4 with heat, 65° C., 2 h
  CFU % recovery (as compared to control flask F): 45%
[1]; Experiment A4 with heat, 65° C., 3 h
  CFU % recovery (as compared to control flask F): 33%
[1]; Experiment A4 with heat, 65° C., 4 h
  CFU % recovery (as compared to control flask F): 46%
[1]; Experiment A5 absent heat, RT, 1 h
  CFU % recovery (as compared to control flask F): 80%
[1]; Experiment A5 absent heat, RT, 2 h
  CFU % recovery (as compared to control flask F): 46%
[1]; Experiment A5 absent heat, RT, 3 h
  CFU % recovery (as compared to control flask F): 67%
[1]; Experiment A5 absent heat, RT, 4 h
  CFU % recovery (as compared to control flask F): 37%
[1]; Experiment A5 with heat, 65° C., 0 min
  CFU % recovery (as compared to control flask F): 75%
[1]; Experiment A5 with heat, 65° C., 1 h
  CFU % recovery (as compared to control flask F): 58%
[1]; Experiment A5 with heat, 65° C., 2 h
  CFU % recovery (as compared to control flask F): 34%
[1]; Experiment A5 with heat, 65° C., 3 h
  CFU % recovery (as compared to control flask F): 34%
[1]; Experiment A5 with heat, 65° C., 4 h
  CFU % recovery (as compared to control flask F): 14%
S. enteritidis; 0 min, listed as 0.1% levulinic acid
  S. enteritidis counts: 7.1 log CFU/ml
S. enteritidis; [2]
  S. enteritidis counts: 7.1 log CFU/ml
S. enteritidis; [3]
  S. enteritidis counts: 6.9 log CFU/ml
S. enteritidis; [4]
  S. enteritidis counts: 6.7 log CFU/ml
S. enteritidis; 0 min, listed as 3.0% levulinic acid
  S. enteritidis counts: 6.6 log CFU/ml
S. enteritidis; 2 min, listed as 0.1% levulinic acid
  S. enteritidis counts: 7.1 log CFU/ml
S. enteritidis; [5]
  S. enteritidis counts: 6.8 log CFU/ml
S. enteritidis; [6]
  S. enteritidis counts: 6.7 log CFU/ml
S. enteritidis; [7]
  S. enteritidis counts: 6.7 log CFU/ml
S. enteritidis; 2 min, listed as 3.0% levulinic acid
  S. enteritidis counts: 6.8 log CFU/ml
S. enteritidis; 5 min, listed as 0.1% levulinic acid
  S. enteritidis counts: 6.9 log CFU/ml
S. enteritidis; [8]
  S. enteritidis counts: 6.9 log CFU/ml
S. enteritidis; [9]
  S. enteritidis counts: 6.8 log CFU/ml
S. enteritidis; [10]
  S. enteritidis counts: 6.7 log CFU/ml
S. enteritidis; 5 min, listed as 3.0% levulinic acid
  S. enteritidis counts: 6.5 log CFU/ml
S. enteritidis; 10 min, listed as 0.1% levulinic acid
  S. enteritidis counts: 7.0 log CFU/ml
S. enteritidis; [11]
  S. enteritidis counts: 6.9 log CFU/ml
S. enteritidis; [12]
  S. enteritidis counts: 6.9 log CFU/ml
S. enteritidis; [13]
  S. enteritidis counts: 6.8 log CFU/ml
S. enteritidis; 10 min, listed as 3.0% levulinic acid
  S. enteritidis counts: 6.2 log CFU/ml
S. enteritidis; 20 min, listed as 0.1% levulinic acid
  S. enteritidis counts: 6.9 log CFU/ml
S. enteritidis; [14]
  S. enteritidis counts: 6.6 log CFU/ml
S. enteritidis; [15]
  S. enteritidis counts: 6.9 log CFU/ml
S. enteritidis; [16]
  S. enteritidis counts: 6.5 log CFU/ml
S. enteritidis; 20 min, listed as 3.0% levulinic acid
  S. enteritidis counts: 5.1 log CFU/ml
S. enteritidis; 30 min, listed as 0.1% levulinic acid
  S. enteritidis counts: 6.9 log CFU/ml
S. enteritidis; [17]
  S. enteritidis counts: 6.7 log CFU/ml
S. enteritidis; [18]
  S. enteritidis counts: 6.7 log CFU/ml
S. enteritidis; [19]
  S. enteritidis counts: 6.0 log CFU/ml
S. enteritidis; 30 min, listed as 3.0% levulinic acid
  S. enteritidis counts: 3.8 log CFU/ml
S. enteritidis; listed as 0.1 to 2.0% by weight levulinic acid
  Salmonella reduction: ~1 log CFU/ml
S. enteritidis; listed as 1% by weight levulinic acid
  Salmonella reduction: ≤ 1 log CFU/ml
S. enteritidis; listed as 3% levulinic acid
  Salmonella reduction: 3.4 log CFU/ml
S. enteritidis; listed as 3.0% levulinic acid
  Salmonella reduction: 3.4 log CFU/ml

Reference: patent US20120129928A1, “Chlorine-Free Liquid Microbicide Treatment” (University of Georgia Research Foundation, Inc., priority 2010, published 2012)
